Results reported in article PMC6691788, “Design and synthesis of phthalazine-based compounds as potent anticancer agents with potential antiangiogenic activity via VEGFR-2 inhibition” (Journal of Enzyme Inhibition and Medicinal Chemistry, 2019).

Experiments:
A549/ATCC = assay: NCI 60 cell panel SRB screen; type: cell-based; conditions: Homo sapiens, single dose 10 μM, read-out: percent cell growth promotion
SF-268 = assay: NCI 60 cell panel SRB screen; type: cell-based; conditions: Homo sapiens; SF-268, single dose 10 μM; read-out: percent cell growth promotion
SF-295 = assay: NCI 60 cell panel SRB screen; type: cell-based; conditions: Homo sapiens; SF-295, single dose 10 μM; read-out: percent cell growth promotion
UACC-62 = assay: NCI 60 cell panel SRB screen; type: cell-based; conditions: Homo sapiens, UACC-62, read-out: percent cell growth promotion
SK-MEL-5 = assay: NCI 60 cell panel SRB screen; type: cell-based; conditions: Homo sapiens, SK-MEL-5, read-out: percent cell growth promotion
SR = assay: NCI 60 cell panel SRB screen; type: cell-based; conditions: Homo sapiens, single dose 10 μM, read-out: percent cell growth promotion
UACC-257 = assay: NCI 60 cell panel SRB screen; type: cell-based; conditions: Homo sapiens, UACC-257, read-out: percent cell growth promotion
CCRF-CEM = assay: NCI 60 cell panel SRB screen; type: cell-based, human; conditions: Homo sapiens, single dose 10 μM, read-out: percent cell growth promotion
786-0 = assay: NCI 60 cell panel SRB screen; type: cell-based; conditions: Homo sapiens; 786-0, single dose 10 μM; read-out: percent cell growth promotion
K-562 = assay: NCI 60 cell panel SRB screen; type: cell-based; conditions: Homo sapiens, K562; K-562, single dose 10 μM; read-out: percent cell growth promotion
HOP-62 = assay: NCI 60 cell panel SRB screen; type: cell-based; conditions: Homo sapiens; HOP-62, single dose 10 μM; read-out: percent cell growth promotion
OVCAR-3 = assay: NCI 60 cell panel SRB screen; type: cell-based; conditions: Homo sapiens; OVCAR-3, single dose 10 μM; read-out: percent cell growth promotion
SW-620 = assay: NCI 60 cell panel SRB screen; type: cell-based; conditions: Homo sapiens; SW-620, single dose 10 μM; read-out: percent cell growth promotion
HCT-116 = assay: NCI 60 cell panel SRB screen; type: cell-based; conditions: Homo sapiens; HCT-116, single dose 10 μM; read-out: percent cell growth promotion
DU-145 = assay: NCI 60 cell panel SRB screen; type: cell-based; conditions: Homo sapiens; DU-145, single dose 10 μM; read-out: percent cell growth promotion
RPMI-8226 = assay: NCI 60 cell panel SRB screen; type: cell-based; conditions: Homo sapiens; RPMI-8226, single dose 10 μM; read-out: percent cell growth promotion
OVCAR-8 = assay: NCI 60 cell panel SRB screen; type: cell-based; conditions: Homo sapiens; OVCAR-8, single dose 10 μM; read-out: percent cell growth promotion
MALME-3M = assay: NCI 60 cell panel SRB screen; type: cell-based; conditions: Homo sapiens, Malme-3M, read-out: percent cell growth promotion
VEGFR-2 tyrosine kinase = molecular target: T1, VEGFR-2 tyrosine kinase (Homo sapiens, UniProt P35968); assay: In vitro VEGFR-2 tyrosine kinase assay (BPS Bioscience); type: biochemical; conditions: read-out: VEGFR-2 % inhibition; 10 μM concentration
T1 construct: purchased BPS Bioscience 40301
Experimental: The VEGFR tyrosine kinase assays were performed at BPS Bioscience (www.bpsbioscience.com). All the synthesised compounds representing the six series were evaluated for their ability to inhibit VEGFR-2 tyrosine kinase at single dose of 10 µM.
The VEGFR tyrosine kinase activity at single dose concentration of 10 μM was carried out by BPS Bioscience (www.bpsbioscience.com). VEGFR (BPS#40301) served as the enzyme source and Poly (Glu, Tyr) sodium salt, (4:1, Glu:Tyr) (Sigma#P7244) served as the standardized substrate & Kinase-Glo Plus Luminescence kinase assay kit (Promega#V3772). The IC50 determination was carried out where quality control testing is routinely performed on each of the targets to insure compliance to acceptable standards. ^33P-ATP was purchased from Perkin Elmer and ADP-Glo^TM was purchased from Promega. All other materials were of standard laboratory grade.
The VEGFR tyrosine kinase activity was performed using Kinase-Glo Plus luminescence kinase assay kit (Promega). It measures kinase activity by quantitating the amount of ATP remaining in solution following a kinase reaction. The luminescent signal from the assay is correlated with the amount of ATP present and is inversely correlated with the amount of kinase activity. The compounds were diluted to 100 μM in 10% DMSO and […] of the dilution was added to a […] reaction so that the final concentration of DMSO is 1% in all of reactions. All of the enzymatic reactions were conducted at 30 °C for 40 min. The 50 μl reaction mixture contains […], pH 7.4, […], 0.1 mg/ml BSA, 0.2 mg/ml Poly (Glu, Tyr) substrate, 10 μM ATP and VEGFR. After the enzymatic reaction, […] of Kinase-GloPlus Luminescence kinase assay solution (Promega) was added to each reaction and incubate the plate for 5 min at room temperature. Luminescence signal was measured using a BioTek Synergy 2 microplate reader. The protein kinase assays used to determine IC50 value were performed using ADP-GloTM assay kit from Promega which measures the generation of ADP by the protein kinase. Generation of ADP by the protein kinase reaction leads to an increase in luminescence signal in the presence of ADP-GloTM assay kit. The assay was started by incubating the reaction mixture in a 96-well plate at 30 °C for 30 min. After the 30 min incubation period, the assay was terminated by the addition of […] of ADP-GloTM Reagent (Promega). The 96 well plate was shaken and then incubated for 40 min at ambient temperature. […] of Kinase detection reagent was added, the 96-well reaction plate was then read using the ADP-Glo Luminescences Protocol on a GloMax plate reader (Promega: Catalog #E7031). Blank control was set up that included all the assay components except the addition of appropriate substrate (replace with equal volume of kinase assay buffer). The corrected activity for each protein kinase target was determined by removing the blank control value.
VEGFR activity assays were performed in duplicate at each concentration. The luminescence data were analyzed using the computer software, Graphpad Prism. The difference between luminescence intensities in the absence of VEGFR (Lut) and in the presence of VEGFR (Luc) was defined as 100% activity (Lut - Luc). […] IC50 determination for inhibitor against VEGFR was estimated by generating a graph of log inhibitor vs normalized response with variable using the Prism software.

M14 = assay: NCI 60 cell panel SRB screen; type: cell-based; conditions: Homo sapiens, M14, read-out: percent cell growth promotion

T1 sequence (P35968 20-1356): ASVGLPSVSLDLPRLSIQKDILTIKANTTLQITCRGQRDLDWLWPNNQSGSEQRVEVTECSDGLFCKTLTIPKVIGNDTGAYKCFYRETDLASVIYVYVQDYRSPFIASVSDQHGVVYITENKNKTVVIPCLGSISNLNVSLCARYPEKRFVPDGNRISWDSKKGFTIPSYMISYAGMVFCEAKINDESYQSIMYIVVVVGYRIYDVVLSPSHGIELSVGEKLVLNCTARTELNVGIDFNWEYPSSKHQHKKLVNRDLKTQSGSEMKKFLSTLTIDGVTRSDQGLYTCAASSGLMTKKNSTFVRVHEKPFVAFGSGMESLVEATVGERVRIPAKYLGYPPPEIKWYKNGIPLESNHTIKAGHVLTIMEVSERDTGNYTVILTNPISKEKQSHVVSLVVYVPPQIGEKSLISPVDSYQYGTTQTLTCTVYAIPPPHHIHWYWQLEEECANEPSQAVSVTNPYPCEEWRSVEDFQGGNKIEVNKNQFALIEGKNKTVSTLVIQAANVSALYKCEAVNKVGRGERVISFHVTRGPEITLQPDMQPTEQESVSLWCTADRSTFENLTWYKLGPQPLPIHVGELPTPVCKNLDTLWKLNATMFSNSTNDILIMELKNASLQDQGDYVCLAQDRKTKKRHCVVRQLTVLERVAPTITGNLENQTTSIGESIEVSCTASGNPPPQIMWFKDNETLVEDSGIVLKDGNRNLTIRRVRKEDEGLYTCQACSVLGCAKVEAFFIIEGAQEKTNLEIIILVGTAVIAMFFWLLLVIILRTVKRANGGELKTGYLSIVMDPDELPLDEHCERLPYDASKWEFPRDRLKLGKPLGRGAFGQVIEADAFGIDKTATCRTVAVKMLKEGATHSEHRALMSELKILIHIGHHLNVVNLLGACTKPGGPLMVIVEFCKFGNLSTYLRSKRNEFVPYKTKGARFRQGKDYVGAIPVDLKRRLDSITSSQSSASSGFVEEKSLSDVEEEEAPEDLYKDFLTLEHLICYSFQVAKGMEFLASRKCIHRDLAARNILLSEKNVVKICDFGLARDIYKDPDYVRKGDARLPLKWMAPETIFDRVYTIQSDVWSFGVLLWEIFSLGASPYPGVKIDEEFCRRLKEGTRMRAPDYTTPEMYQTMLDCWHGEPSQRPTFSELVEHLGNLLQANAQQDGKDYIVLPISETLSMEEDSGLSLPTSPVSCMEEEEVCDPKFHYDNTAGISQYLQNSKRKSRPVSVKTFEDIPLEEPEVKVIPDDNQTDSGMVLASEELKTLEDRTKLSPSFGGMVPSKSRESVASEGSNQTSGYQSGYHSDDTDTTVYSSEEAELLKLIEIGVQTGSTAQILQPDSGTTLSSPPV

SMILES: O=C(Nc1ccc(Nc2nncc3ccccc23)cc1)c1ccc(Cl)cc1 [Compound 5b, 4-Chloro-N-(4-(phthalazin-1-ylamino)phenyl)benzamide]
- activity at 10 µM (A549/ATCC): 101%
- activity at 10 µM (SF-268): 98%
- activity at 10 µM (SF-295): 102%
- activity at 10 µM (UACC-62): 89.8%
- activity at 10 µM (SK-MEL-5): 99.8%
- activity at 10 µM (SR): 95%
- activity at 10 µM (UACC-257): 93%
- activity at 10 µM (CCRF-CEM): 103%
- activity at 10 µM (786-0): 107%
- activity at 10 µM (K-562): 102%
- activity at 10 µM (HOP-62): 91.8%
- activity at 10 µM (OVCAR-3): 101%
- activity at 10 µM (SW-620): 102%
- activity at 10 µM (HCT-116): 100%
- activity at 10 µM (DU-145): 114%
- activity at 10 µM (RPMI-8226): 104%
- activity at 10 µM (OVCAR-8): 96.2%
- activity at 10 µM (MALME-3M): 99.6%
- inhibition at 10 µM (VEGFR-2 tyrosine kinase): 8%
- activity at 10 µM (M14): 99.7%
